This assay concerns the target T1, histamine 3 receptor (H3R), human HR3-CHO membranes (Homo sapiens, UniProt Q9Y5N1).
T1 construct: expressed in transfected cells; host or cells: CHO cells (HR3-CHO cell line), membrane preparation
Nature of the assay: Competition binding assay with 3H-(R)α-methylhistamine on membranes of the human HR3-CHO cell line. Particulars: displacement of 3H-(R)α-methylhistamine (1 nM), membrane of human HR3-CHO cell line; Ki calculated from IC50 by Cheng-Prusoff. Here is the method: Binding Assay with ^3H-(R)α-methylhistamine
Saturation binding experiments were performed using HR3-CHO membranes prepared as described in Takahashi, K, Tokita, S., Kotani, H. (2003) J. Pharmacol. Exp. Therapeutics 307, 213-218.
An appropriate amount of membrane (60 to 80 μg protein/well) was incubated with increasing concentrations of ^3H(R)α-Methylhistamine di-hydrochloride (0.10 to 10 nM). Non specific binding was determined using a 200 fold excess of cold (R)(X-Methylhistamine dihydrobromide (500 nM final concentration). The incubation was carried out at room temperature (in deep-well plates shaking for three hours). The final volume in each well was 250 pt. The incubation was followed by rapid filtration on GF/B filters (pre-soaked with 100 W of 0.5% PEI in Tris 50 mM shaking at 200 rpm for two hours). The filtration was made using a cell-harvester and the filter plates were then washed five times with ice cold washing buffer containing 0.5 M NaCl. After harvesting, the plates were dried at 55° C. for 60 min, then we added scintillation fluid (Microscint 40, 40 microl in each well) and the amount of radioactivity on the filter was determined in Packard top-counter after shaking the plates for two hours at 200 rpm at room temperature.
Binding Buffer: 50 mM Tris-HCl pH 7.4 and 5 mM MgCl2×6H2O pH 7.4. Washing Buffer: 50 mM Tris-HCl pH 7.4 and 5 mM MgCl2x6H2O and 0.5 M NaCl pH 7.4.
Indirect measurement of affinity of H3R inverse agonists: twelve increasing concentrations (ranging from 10 μM to 0.3 nM) of the selected compounds were always tested in competition binding experiments using membrane of the human HR3-CHO cell line. An appropriate amount of protein, e.g. approximately 500 cpm binding of RAMH at Kd, were incubated for 1 hour at room temperature in 250 μl final volume in 96-well plates in presence of ^3H(R)α-Methylhistamine (1 nM final concentration=Kd). […]
All compounds were tested at a single concentration in duplicates. […] Ki's were calculated from IC50 based on Cheng-Prusoff equation (Cheng, Y, Prusoff, W H (1973) Biochem Pharmacol 22, 3099-3108).

SMILES strings stand for the structures.

T1 sequence (Q9Y5N1 whole entry): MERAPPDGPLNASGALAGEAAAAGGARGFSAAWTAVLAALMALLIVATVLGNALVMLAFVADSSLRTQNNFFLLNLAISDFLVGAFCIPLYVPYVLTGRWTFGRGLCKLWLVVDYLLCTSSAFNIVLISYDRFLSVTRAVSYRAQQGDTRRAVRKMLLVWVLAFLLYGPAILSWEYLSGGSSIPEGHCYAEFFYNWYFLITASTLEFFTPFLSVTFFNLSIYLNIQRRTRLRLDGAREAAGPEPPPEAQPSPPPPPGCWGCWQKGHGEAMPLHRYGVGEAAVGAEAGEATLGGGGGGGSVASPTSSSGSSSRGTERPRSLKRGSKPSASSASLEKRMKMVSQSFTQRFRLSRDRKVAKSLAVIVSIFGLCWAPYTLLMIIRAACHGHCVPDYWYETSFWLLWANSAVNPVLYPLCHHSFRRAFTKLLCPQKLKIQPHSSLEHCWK

In general, Ki refers to a measure of affinity in units of concentration, obtained from inhibition or displacement. Regarding `CC(C)N1CCC(Oc2ccc3nc(C(=O)N4CC=CC4)ccc3c2)CC1` [Example 2, (2,5-dihydro-pyrrol-1-yl)-[6-(1-isopropyl-piperidin-4-yloxy)-quinolin-2-yl]-methanone], the Ki is 200 nM. For `CC(C)N1CCC(Oc2ccc3nc(C(=O)N4CCC4)ccc3c2)CC1` [Example 14, azetidine-1-yl-[6-(1-isopropyl-piperidin-4-yloxy)-quinolin-2-yl]-methanone] the value was 78 nM. For `O=C(c1ccc2cc(OCCCN3CCCCC3)ccc2n1)N1CCCC1` [Example 64, [6-(3-piperidin-1-yl-propoxy)-quinolin-2-yl]-pyrrolidin-1-yl-methanone] the value was 450 nM.

The record behind these values is patent US7534891B2, “Quinoline derivatives as H3R inverse agonists” (Hoffman-La Roche Inc., priority 2004, dated 2009).
